# According to patent publication US6043212A, “Recombinant C140 receptor, its agonists and antagonists, and nucleic acids encoding the receptor” (COR Therapeutics, Inc., priority 1995, dated 2000):
# Peptide text beside a SMILES is read from it.
# Molecular target: T1, wild-type mouse C140 receptor (Mus musculus, UniProt P55086)
# T1 construct: Native receptors were produced by cloning the coding region of the receptor gene; expressed in transfected cells; host or cells: Xenopus laevis oocytes injected with capped cRNA from pSG-5 C140
# T1 sequence (P55086 32-399 limits assumed): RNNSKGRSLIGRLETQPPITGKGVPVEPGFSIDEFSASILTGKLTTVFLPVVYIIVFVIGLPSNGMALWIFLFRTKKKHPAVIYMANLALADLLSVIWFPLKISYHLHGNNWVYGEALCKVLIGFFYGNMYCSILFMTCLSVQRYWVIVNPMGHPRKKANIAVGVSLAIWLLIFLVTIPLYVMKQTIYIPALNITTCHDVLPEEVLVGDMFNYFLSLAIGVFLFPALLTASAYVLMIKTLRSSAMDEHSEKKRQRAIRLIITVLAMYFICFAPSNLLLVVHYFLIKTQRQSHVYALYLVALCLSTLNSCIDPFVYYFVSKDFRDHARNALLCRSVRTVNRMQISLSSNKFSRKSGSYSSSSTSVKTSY
# Experiment: 45Ca release by Xenopus oocytes expressing wild-type mouse C140 receptor
# Format: cell-based
# Details: Table 2; peptides at 100 μM; wild-type mouse C140 receptor in oocytes
# Protocol: Agonist-induced increases in ^45 Ca release by oocytes expressing cRNA encoding C140 receptor or other recombinant cells producing C140 receptor are assessed by published techniques (Williams, J. A., et al., Proc Natl Acad Sci USA (1988) 85:4939-4943). Briefly, intracellular calcium pools are labeled by incubating groups of 30 oocytes in 300 μl calcium-free modified Barth's solution (MBSH) containing 50 μCi ^45 CaCl2 (10-40 mCi/mg Ca; Amersham) for 4 hours at RT. The labeled oocytes or cells are washed, then incubated in MBSH II without antibiotics for 90 minutes. Groups of 5 oocytes are selected and placed in individual wells in a 24-well tissue culture plate (Falcon 3047) containing 0.5 ml/well MBSH II without antibiotics. This medium is removed and replaced with fresh medium every 10 minutes; the harvested medium is analyzed by scintillation counting to determine ^45 Ca released by the oocytes during each 10-minute incubation. The 10-minute incubations are continued until a stable baseline of ^45 Ca release per unit time is achieved. Two additional 10-minute collections are obtained, then test medium including agonist is added and agonist-induced ^45 Ca release determined.
# Oocytes from Xenopus laevis were harvested and prepared using published techniques (Coleman, A., in Hames, B. D., and Higgins, S. J., eds, Transcription and Translation: A Practical Approach, IRL Press, pp. 271-302; Williams, J. A., et al. Proc Natl Acad Sci USA (1988) 85:4939-4943]. To remove follicular cells, oocytes were incubated for 1.5 h with shaking in calcium-free Barth's containing 2 mg/ml each of collagenase 1A and hyaluronidase 1S. The oocytes were then washed five times in regular Barth's and incubated at 18° C. in Barth's medium containing 100 U/ml penicillin, 100 μg/ml streptomycin, and 2.5 mM sodium pyruvate. Stage V oocytes were selected and injected with 30 nl of cRNA (0.33 μg/μl water) or water alone, and then incubated with 0.25 ml of medium in groups of four/well in a 96-well culture plate. After 36 hours the oocytes were incubated with ^45 Ca (250 μCi/ml). After 12 h incubation the oocytes were washed and 0.2 ml of medium added and replaced every five minutes. The harvested medium was analyzed by scintillation counting. After five replacements to determine the baseline release of ^45 Ca, test medium with the agonist, e.g. SLIGRL (SEQ ID NO: 23), was added and the evoked ^45 Ca-release determined.
# Oocytes were injected with capped cRNA (ca 10 ng) encoding wild-type mouse C140 receptor (WT) or either of the three mutant receptors 35Pro, 35Arg and 35His. After 36 hours, cRNA-injected and control water-injected, oocytes were loaded with ^45 Ca, and 12 hours thereafter peptide or trypsin-induced ^45 Ca release were determined as described above. The peptide SLIGRL (SEQ ID NO: 23) was added at 100 μM, and trypsin at 300 pM. The stimulation with the peptide was done on the same group of oocytes after the stimulation with trypsin. The data shown in Table 1 represent the mean of three replicate determinations, and denotes the increase compared to oocytes injected with water.
# Various peptides were tested at 100 μM in the assay above using wild-type mouse C140 receptor, expressed in oocytes.
row,Compound,Fold increase in 45Ca [fold]
1,CC[C@H](C)[C@H](NC(=O)[C@H](CC(C)C)NC(=O)[C@H](C)N)C(=O)NCC(=O)N[C@@H](CCCNC(=N)N)C(=O)N[C@@H](CC(C)C)C(=O)O [ALIGRL] (H-ALIGRL-OH),1.3
2,CC[C@H](C)[C@H](NC(=O)[C@H](C)NC(=O)[C@@H](N)CO)C(=O)NCC(=O)N[C@@H](CCCNC(=N)N)C(=O)N[C@@H](CC(C)C)C(=O)O [SAIGRL] (H-SAIGRL-OH),0
3,"CC(C)C[C@H](NC(=O)[C@H](Cc1ccccc1)NC(=O)[C@H](Cc1ccccc1)NC(=O)[C@@H](N)CO)C(=O)N[C@@H](CCCNC(=N)N)C(=O)N[C@@H](Cc1c[nH]c2ccccc12)C(=O)O [SFFLRW, reference compound] (H-SFFLRW-OH)",1.7
4,CC(C)C[C@H](NC(=O)[C@H](CCCNC(=N)N)NC(=O)CNC(=O)[C@H](C)NC(=O)[C@H](CC(C)C)NC(=O)[C@@H](N)CO)C(=O)O [SLAGRL] (H-SLAGRL-OH),0
5,CC[C@H](C)[C@H](NC(=O)[C@H](CC(C)C)NC(=O)[C@@H](N)CO)C(=O)N[C@@H](C)C(=O)N[C@@H](CCCNC(=N)N)C(=O)N[C@@H](CC(C)C)C(=O)O [SLIARL] (H-SLIARL-OH),4.3
6,CC[C@H](C)[C@H](NC(=O)[C@H](CC(C)C)NC(=O)[C@@H](N)CO)C(=O)NCC(=O)N[C@@H](C)C(=O)N[C@@H](CC(C)C)C(=O)O [SLIGAL] (H-SLIGAL-OH),0
7,CC[C@H](C)[C@H](NC(=O)[C@H](CC(C)C)NC(=O)[C@@H](N)CO)C(=O)NCC(=O)N[C@@H](CCCNC(=N)N)C(=O)N[C@@H](C)C(=O)O [SLIGRA] (H-SLIGRA-OH),8.5
